Here are results for three compounds from US20090186868A1, “Taxane Compound Having Azetidine Ring Structure” (Daiichi Sankyo Company Limited, priority 2005, published 2009).

Data set [1] deals with NCI-H460 (human lung cancer cell line). The data set is described as follows: Anti-cell activity (MTT) against human tumor cell line NCI-H460. Type of data set: cell-based. The conditions noted are these: 72 h, NCI-H460, cultured three days, read-out: NCI-H460 (GI50 value, ng/mL). The protocol:
(§1) Three types of human tumor cell lines (all of the cells were obtained from American Type Culture Collection) were seeded on 96-well microplates as follows.
(§2) NCI-H460 (human lung cancer cell line): 5.0×10^2 cells/190 μL/well HCT-15 (P glycoprotein (P-gp) expressing human colon cancer cell line, J. Natl. Cancer Inst., 2001, 93:1234-1245): 1.0×10^3 cells/190 μL/well HCT116 (human colon cancer cell line): 1.0×10^3 cells/190 μL/well On the next day, each test compound was dissolved in 100% dimethyl sulfoxide (DMSO) at a concentration of 10 mg/mL. This solution was diluted with 0.01% Cremophor EL-PBS(−) (Cremophor EL: Sigma Chemical Co., St. Louis, Mo., USA, PBS: Invitrogen Corp., Carlsbad, Calif., USA), and 10 μL of the diluted solution was added to each well (final concentration: 100 to 0.000381 ng/mL). The cells were cultured for three days, and then […] of a 5 mg/mL solution of 3-(4,5-dimethylthiazol-2-yl)-2,5-diphenyl-2H-tetrazolium bromide (MTT, Sigma Chemical Co.) was added to each well. The cells were further cultured for 4 hours, and then the medium was removed by centrifugation. By adding 150 μL of DMSO to each well, the produced formazan product was dissolved. The absorbance of the solution was measured at 540 nm. The drug concentration suppressing cell proliferation of the drug addition group to 50% of the cell proliferation of the drug free group (GI50 value, ng/mL) was calculated, and used as an index of anti-cell activity.

Data set [2] has as its system HCT-15 (P glycoprotein (P-gp) expressing human colon cancer cell line). Nature of the data set: Anti-cell activity (MTT) against human tumor cell line HCT-15. Type of data set: cell-based. Conditions: 72 h, HCT-15 (P-gp expressing), cultured three days, read-out: HCT-15 (GI50 value, ng/mL). The protocol:
as §1, §2

Data set [3] deals with HCT116 (human colon cancer cell line). The data set is described as follows: Anti-cell activity (MTT) against human tumor cell line HCT116. In kind it is cell-based. The conditions noted are these: HCT-116, 72 h, HCT116, cultured three days, read-out: HCT116 (GI50 value, ng/mL). The protocol:
as §1, §2

Data set [4] relates to B16 melanoma BL6. Nature of the data set: Antitumor effect in mice subcutaneously transplanted with B16 melanoma BL6. In kind it is in vivo, Mice (C57BL/6). Conditions: B16 Melanoma BL6, po; MTD/MED. The source says: (§3) Mice (C57BL/6, Charles River Japan) were subcutaneously transplanted with B16 melanoma BL6 (Cancer Res., Poste, G., Fidler, I. J. et al., 1980, 40:1636; Bioorg. Med. Chem. Lett., Takeda, Y. et al., 2003, 13:185-190), or M5076 (obtained from Japanese Foundation for Cancer Research), which is a histiocytoma expressing P-gp. Four days after the transplantation in the case of B16 melanoma BL6, or 8 to 10 days after the transplantation in the case of M5076, each test compound suspended in a 0.5% aqueous solution of carboxymethylcellulose sodium, or dissolved in EtOH:Tween 80:5% glucose=5:5:90 (v/v %) was orally (po) or intravenously (iv) administered to the mice. Ten days after the administration in the case of B16 melanoma BL6, or 8 to 10 days after the administration in the case of M5076, the mice were dissected, and tumor weights were measured. The antitumor effect was calculated in accordance with the following equation.
(§4) [1−(Average tumor weight of compound administration group/average tumor weight of solvent administration group)]×100
(§5) An antitumor effect of 58% or more was considered effective (Int. J. Cancer, 1989, 43:637-44), and the maximum tolerance dose (MTD, maximum dose not causing death, mg/kg) and minimum effective dose (MED, mg/kg) showing effectiveness were obtained, respectively. The therapeutic index was calculated in accordance with the equation: MTD/MED.
(§6) ND means that the test was not performed. The effective dose range means the range of from MED to MTD.

Data set [5] concerns M5076 (histiocytoma expressing P-gp). The data set is described as follows: Antitumor effect in mice subcutaneously transplanted with M5076. Type of data set: in vivo, Mice (C57BL/6). Conditions: M5076, po; for Therapeutic index: MTD/MED; for Effective dose range: range from MED to MTD, antitumor effect of 58% or more considered effective.
Source text: as §3, §4, §5, §6

A short description of data set [6]: Solubility in first and second solution for disintegration test (Japanese Pharmacopoeia). Type of data set: physicochemical. The conditions noted are these: thermodynamic from solid. The protocol:
Solubility of each compound was determined in the first solution for disintegration test according to Japanese Pharmacopoeia (henceforth referred to as the first solution, solution obtained by adding 7 mL of hydrochloric acid and water to 2.00 g of sodium chloride to dissolve sodium chloride and fill up the solution to 1000 mL, pH 1.2) and the second solution for disintegration test according to Japanese Pharmacopoeia (henceforth referred to as the second solution, solution obtained by adding 118 mL of 0.2 mol/L solution of sodium hydroxide to 6.80 g of potassium dihydrogenphosphate, adding water to the mixture to dissolve potassium dihydrogenphosphate and filling up the solution to 1000 mL, pH 6.8).
Each test compound was dissolved in 100% dimethyl sulfoxide (DMSO) at a concentration of 10 mM, and 50 μL of the solution was lyophilized. The lyophilized test compound was added with 250 μL of the first solution or second solution, and the mixture was stored at room temperature for 12 hours or longer under light shielding, and filtered (0.7 μm). The filtrate was taken in a volume of 90 μL, and added with 50% DMSO (90 μL) to obtain a two-fold diluted solubility sample. The two-fold dilution solubility sample was taken in a volume of 20 μL, and added with 50% DMSO (180 μL) to obtain a […] diluted solubility sample. Solubility of each test sample was determined by quantifying the test compound in the resulting diluted solubility test samples using high-performance liquid chromatography.

Where [7] appears, read: aqueous buffer, second solution for disintegration test, pH 6.8, room temperature, 12 hours or longer, read-out: Solubility (μg/mL) pH 6.8.
[8] abbreviates: simulated gastric fluid, first solution for disintegration test, pH 1.2, room temperature, 12 hours or longer, read-out: Solubility (μg/mL) pH 1.2.

Converted amounts (≈) assume the structure as drawn. Read-outs that look alike come from different tables or passages of the source.

As to `CC(=O)O[C@@]12CO[C@@H]1CC[C@@]1(C)[C@@H]3O[C@H](CN4CC(O)C4)O[C@@H]3C3=C(C)[C@@H](OC(=O)[C@H](O)[C@@H](NC(=O)OC(C)(C)C)c4ccccn4)C[C@@](O)([C@@H](OC(=O)c4ccccc4)[C@@H]12)C3(C)C` [Example 5, (1S,2S,3R,4S,5R,8R,9S,10R,13S)-4-(Acetoxy)-2-(benzoyloxy)-5,20-epoxy-1-hydroxy-9,10-[(1S)-2-(3-hydroxyazetidino)ethylidenedioxy]tax-11-en-13-yl (2R,3S)-3-(tert-butoxycarbonylamino)-2-hydroxy-3-(2-pyridyl)propionate], the GI50 in data set [1] was determined as 0.162 ng/mL (≈ 0.000182 µM); in data set [2] it was 8.08 ng/mL (≈ 0.00906 µM); in data set [3], 0.229 ng/mL (≈ 0.000257 µM). The Therapeutic index was found to be 6.0 in data set [4] and 1.0 in data set [5]. Besides, the “Effective dose range” value in data set [5] is given as 30.0 mg/kg. The solubility in data set [6] (setting [7]) is 140 µg/mL (≈ 157 µM); in data set [6] (setting [8]), 1000 µg/mL (≈ 1120 µM).

As to `CC(=O)O[C@@]12CO[C@@H]1CC[C@@]1(C)[C@@H]3O[C@H](CN4CC(O)C4)O[C@@H]3C3=C(C)[C@@H](OC(=O)[C@H](O)[C@@H](NC(=O)OC(C)(C)C)c4ncccc4F)C[C@@](O)([C@@H](OC(=O)c4ccccc4)[C@@H]12)C3(C)C` [Example 6, (1S,2S,3R,4S,5R,8R,9S,10R,13S)-4-(Acetoxy)-2-(benzoyloxy)-5,20-epoxy-1-hydroxy-9,10-[(1S)-2-(3-hydroxyazetidino)ethylidenedioxy]tax-11-en-13-yl (2R,3S)-3-(tert-butoxycarbonylamino)-3-(3-fluoro-2-pyridyl)-2-hydroxypropionate], the GI50 in data set [1] worked out at 0.172 ng/mL (≈ 0.000189 µM); in data set [2], 7.94 ng/mL (≈ 0.00873 µM); in data set [3], 0.183 ng/mL (≈ 0.000201 µM). Moreover, the results for the Therapeutic index in data set [4] and in data set [5] were 4.2 and 2.0, respectively. In data set [5], the “Effective dose range” value lay in the range of 18.6 to 38.0 mg/kg. Moreover, the solubility in data set [6] (pH 1.2, simulated gastric fluid) was 690 µg/mL (≈ 758 µM); in data set [6] (pH 6.8, aqueous buffer), 87 µg/mL (≈ 95.6 µM).

Consider `COC1CN(C[C@@H]2O[C@@H]3C4=C(C)[C@@H](OC(=O)[C@H](O)[C@@H](NC(=O)OC(C)(C)C)c5ncccc5F)C[C@@](O)([C@@H](OC(=O)c5ccccc5)[C@H]5[C@@](C)(CC[C@H]6OC[C@]65OC(C)=O)[C@@H]3O2)C4(C)C)C1` [Example 8, (1S,2S,3R,4S,5R,8R,9S,10R,13S)-4-(Acetoxy)-2-(benzoyloxy)-5,20-epoxy-1-hydroxy-9,10-[(1S)-2-(3-methoxyazetidino)ethylidenedioxy]tax-11-en-13-yl (2R,3S)-3-(tert-butoxycarbonylamino)-3-(3-fluoro-2-pyridyl)-2-hydroxypropionate], for which the GI50 in data set [1] was 0.128 ng/mL (≈ 0.000139 µM); in data set [2], 0.236 ng/mL (≈ 0.000255 µM); in data set [3], 0.155 ng/mL (≈ 0.000168 µM). The Therapeutic index in data set [4] is reported as 2.9; in data set [5], 1.4. Also, the “Effective dose range” value in data set [5] lay in the range of 21.0 to 30.0 mg/kg. Further, the values for the solubility in data set [6] (setting [7]) and in data set [6] (setting [8]) were 10 µg/mL (≈ 10.8 µM) and 600 µg/mL (≈ 649 µM), respectively.
